Source: patent publication US20050009837A1, “Modulators of lipid metabolism and methods of use” (City of Hope, priority 2003, published 2005)
Each block holds one molecule with its values, some of them ahead of it.

Experiments:
SREBP-1c expression = experiment: Real-time PCR of SREBP-1c expression in HepG2 cells; type: cell-based, human; conditions: 100 nM, 24 hours, versus untreated
Procedure: Real time PCR was then performed on cDNA derived from RNA isolated form the treated HepG2 cells as follows. Real time quantitative PCR assays were performed using an Applied Biosystems 7700 sequence detector (Applied Biosystems). Each reaction mixture contained 50 ng cDNA, 1.25 pmol each forward and reverse primer, and […] 2× SYBR Green PCR master mix (Applied Biosystems) in a final volume of 25 μl. The PCR conditions were 50° C. for 2 min, 95° C. for 10 min, and 40 cycles of 95° C. for 15 sec and 60° C. for 1 min. Samples were run in duplicate for each primer pair. Expression of glyceraldehyde-3-phosphate dehydrogenase (GAPDH) was analyzed in parallel as an internal control. Each sample was normalized to GAPDH and is represented in the Figure showing the results as arbitrary units with the expression levels in untreated cells assigned a value of one. The primer sequences are as follows: human SREBP-1c forward [NT] ID NO:1); human SREBP-1c reverse [NT] ID NO:2); human GAPDH forward [NT] ID NO:3) and human GAPDH reverse [NT] ID NO:4).

NIH3T3-L1 adipocytes = experiment: Triglyceride content (Nile Red) of NIH3T3-L1 cells differentiated to adipocytes; type: cell-based; conditions: T0901317 200 nM or Clotrimazole 7.5 μm, 7 days
Procedure: NIH 3T3-L1 cells were maintained in growth media consisting of Dulbecco's modified Eagle's medium (DMEM) supplemented with 10% calf bovine serum (CBS), 50 U/ml penicillin G and 50 μg/ml streptomycin sulfate. To induce NIH 3T3-L1 differentiation into adipocytes, confluent cells were transferred from their growth media to DMEM containing 10% fetal bovine serum (FBS), 5 μg/ml insulin, 0.5 mM 3-isobutyl-1-methylxanthine (IBMX) and 1 μM dexamethasone for 7 days. During the differentiation period, cells also optionally received 200 nM T0901317, 7.5 μM Clotrimazole or both.
NIH3T3-L1 cells were allowed to differentiate for 7 days in the presence of a well-established differentiation cocktail containing dexamethazole (1 μm), IBMX (0.5 mM) and insulin (5 μg/ml) in the absence or presence of T0901317 (200 nM) or Clotrimazole (7.5 μm). The cells then were fixed and stained with Nile Red, which stains triglycerides (TG) green, and DAPI to visualize nuclei (in blue). TG content of the cell reflected increased or decreased lipogenesis.

[1] = mice fed the agonist; cited from earlier work
human LXRα = target: T1, human LXRα (Homo sapiens, UniProt Q13133); experiment: Full-length hLXRα/hRXRα LXREx3 TK-Luc reporter assay in transfected CV-1 cells; type: cell-based; conditions: 20 μM, 40 hours
T1 construct: expressed in transfected cells; host or cells: CV-1 cells
T1 sequence (Q13133 1-447): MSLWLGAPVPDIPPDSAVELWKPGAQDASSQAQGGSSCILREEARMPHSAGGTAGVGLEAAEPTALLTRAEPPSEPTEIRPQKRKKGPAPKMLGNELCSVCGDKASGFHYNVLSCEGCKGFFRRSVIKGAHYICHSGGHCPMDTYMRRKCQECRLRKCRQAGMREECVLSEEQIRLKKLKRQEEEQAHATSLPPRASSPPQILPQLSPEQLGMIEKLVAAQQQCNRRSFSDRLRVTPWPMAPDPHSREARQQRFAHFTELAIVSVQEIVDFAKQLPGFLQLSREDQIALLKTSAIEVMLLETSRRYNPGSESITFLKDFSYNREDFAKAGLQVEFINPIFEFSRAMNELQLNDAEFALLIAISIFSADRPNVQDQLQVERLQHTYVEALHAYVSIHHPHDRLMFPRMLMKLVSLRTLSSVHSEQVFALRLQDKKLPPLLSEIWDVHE
T1 sequence (P19793 1-462 partner): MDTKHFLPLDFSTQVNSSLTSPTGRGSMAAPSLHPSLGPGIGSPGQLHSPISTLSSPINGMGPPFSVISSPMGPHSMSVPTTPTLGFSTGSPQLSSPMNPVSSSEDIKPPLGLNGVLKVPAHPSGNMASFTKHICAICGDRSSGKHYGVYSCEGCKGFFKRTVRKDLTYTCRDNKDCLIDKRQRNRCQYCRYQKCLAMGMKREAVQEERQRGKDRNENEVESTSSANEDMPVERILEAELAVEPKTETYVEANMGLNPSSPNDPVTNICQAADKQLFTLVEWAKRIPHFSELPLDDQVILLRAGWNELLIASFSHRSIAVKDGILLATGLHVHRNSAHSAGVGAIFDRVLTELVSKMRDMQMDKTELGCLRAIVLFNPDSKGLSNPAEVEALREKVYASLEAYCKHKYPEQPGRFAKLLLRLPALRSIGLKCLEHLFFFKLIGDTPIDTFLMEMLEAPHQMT
Procedure: CV-1 cells were grown in DMEM supplemented with 10% resin-charcoal stripped fetal bovine serum, 50 U/ml penicillin G and 50 μg/ml streptomycin sulfate at 37° C. in 5% CO2. Cells were plated to 50-80% confluence one day prior to transfection using phenol red-free DMEM-FBS. The cells were transfected by lipofection using N-[1-(2,3-dioleoyloxy)propyl]-N,N,N-ammonium methyl sulfate according to manufacturer's instructions (Boehringer Mannheim).
Genes encoding the following full-length proteins, which are suitable for use in the studies described herein, were cloned into pCMX: human RXRα (Gene Bank accession X52773) and human LXRα (GenBank accession U22662). The cells were transfected with CMX-βgal and luciferase constructs. The CMX-βGal construct contained the ligand binding domain of human RXR (hRXRα) and the ligand binding domain of human LXRα (hLXRα) as indicated in FIG. 1. The luciferase reporter construct (LXREx3 TK-Luc) contained the herpes virus thymidine kinase promoter (−105/+51) linked to three copies of the response element LXRE. After transfection, the cells were treated with 20 μM of a synthetic azole test compound or vehicle alone for 40 hours in phenol red-free DMEM-FBS.

LXRα = LXRα (Homo sapiens, UniProt Q13133); experiment: LXR activity, fatty acids

SMILES: O=S(=O)(c1ccccc1)N(CC(F)(F)F)c1ccc(C(O)(C(F)(F)F)C(F)(F)F)cc1 [T0901317]
increase of SREBP-1c expression (SREBP-1c expression): up to 4 fold
TG content compared to differentiation cocktail only (NIH3T3-L1 adipocytes): small overall increase in TG content
plasma triglycerides compared to mice fed a control diet [1]: elevated plasma triglycerides

antagonism of constitutive activation mediated by LXR (hLXRα activity, LXREx3 TK-Luc) (human LXRα): inactive
SMILES: CC(=O)N1CCN(c2ccc(OCC3COC(Cn4ccnc4)(c4ccc(Cl)cc4Cl)O3)cc2)CC1 (centres unmarked) [ketonazole]

effect on LXR activity (LXRα): LXR antagonist
SMILES: CC/C=C\C/C=C\C/C=C\CCCCCCCC(=O)O [αlinoleic acid]
